Paper PMC4501059, “Responding to the challenge of untreatable gonorrhea: ETX0914, a first-in-class agent with a distinct mechanism-of-action against bacterial Type II topoisomerases” (Scientific Reports, 2015)
Converted amounts (≈) assume the structure as drawn. Where two headings read alike, the source gives them in different places.

Experiments:
S. pneumoniae ATCC49619 = experiment: MIC (CLSI broth microdilution); assay type: cell-based
Dog pharmacokinetics = assay type: in vivo, Beagle dog
Method: AZD0914 was analyzed in mouse, rat, dog, monkey plasma using a qualified method which was later validated for human plasma analysis. The validated human method is described below and is representative of the approach taken in other species. AZD0914 was determined in human plasma prepared with K2EDTA as an anticoagulant. AZD0914 and an internal standard (^13C2, ^15N2 AZD0914) were extracted from plasma with tert- butyl methyl ether. After evaporating to dryness under a stream of nitrogen, the residue was reconstituted and quantitated by reverse phase HPLC-MS/MS against a standard curve from 1.00 to 5000 ng/ml. Separation was achieved using a gradient which went from 55% to 85% methanol:acetonitrile (1:1) containing 0.2% formic acid as mobile phase B and 0.2% formic acid in water as mobile phase A at a flow rate of 0.60 ml/min through a Phenomonex Gemini C18 column (50 x 2.0 mm column, […]) heated using a Shimadzu CTO-20AC set to 40 °C. AZD0914 was detected in multiple reaction monitoring (MRM) mode by positive ion electrospray ionization using a Sciex API5500 (Toronto, Canada) mass spectrometer. The ion spray voltage was set to 5500 V and turboionspray temperature was 650 °C. AZD0914 was quantitated using the MRM transition 488.2 → 348.2 using a collision energy of 29 eV. The internal standard, (^13C2, ^15N2 AZD0914), was monitored using identical conditions except for the MRM transition of 492.2 → 348.2.

Ureaplasma spp. = system: Ureaplasma spp.; parameters: method as in ref 3 (supplement); settings: 21 tested; ref 3 (supplement); cited from earlier work
[1] = hepatocyte intrinsic clearance; assay type: in vitro ADME; settings: male, Han-Wister, rat hepatocytes
Excerpt: Supplement srep11827-s1.doc, table 4 | column: Han-Wister rat (male)

C[C@@H]1CN2c3c(cc4c(N5C(=O)OC[C@@H]5C)noc4c3F)CC3(C(=O)NC(=O)NC3=O)[C@H]2[C@H](C)O1 [ETX0914]
MIC: S. pneumoniae ATCC49619 (S. pneumoniae ATCC49619): 0.125 µg/mL (≈ 0.256 µM) | Ka (Dog pharmacokinetics; Beagle dog (male)): 1.2 h⁻¹ | Dog F (Dog pharmacokinetics; beagle, dog, plasma): 71% | clearance (Dog pharmacokinetics; beagle, dog, plasma): 4 mL/min/kg | clearance (Dog pharmacokinetics; plasma, Beagle dog (male), IV 2.5 mg/kg, read-out: Clp (IV)): 4 mL/min/kg | half-life (Dog pharmacokinetics; plasma, Beagle dog (male), IV 2.5 mg/kg, read-out: T1/2 (IV) (converted)): 3 h | Vd (Dog pharmacokinetics; plasma, Beagle dog (male), IV 2.5 mg/kg, read-out: Vss (IV)): 0.8 L/kg | bioavailability (Dog pharmacokinetics; plasma, Beagle dog (male), IV 2.5 / PO 5 mg/kg): 71% | Cmax (Dog pharmacokinetics; plasma, Beagle dog (male), PO 5 mg/kg): 7.1 µM | half-life (Dog pharmacokinetics; plasma, Beagle dog (male), PO 5 mg/kg, read-out: T1/2 (PO) (converted)): 3.1 h | MIC90 (Ureaplasma spp.): 1.0^3 µg/ml | MIC Range (Ureaplasma spp.): 0.125 to 2 µg/mL | hepatocyte CLint at 1 µM [1]: 10 µL/min/1e6 cells
